The record followed here is patent US5141934A, “Tetracyclic amines having pharmaceutical activity” (Warner-Lambert Company, priority 1990, dated 1992).

This test concerns the target phencyclidine (PCP) receptors (noncompetitive NMDA antagonist binding site). Put plainly: Tritiated 1[1-(2 thienyl)cyclohexyl]piperidine (TCP) binding, designated RBS1. The settings on record: Table 1, read-out: RBSI IC50. The procedure:
The ability of the compounds of the instant invention to interact with phencyclidine (PCP) receptors which represents a noncompetitive NMDA antagonist binding site, is shown in Table 1. Tritiated 1[1-(2 thienyl)cyclohexyl]piperidine (TCP) binding, designated RBS1, was carried out essentially as described in J. Pharmacol. Exp. Ther., 238, 739 (1986).

`CN1C[C@@H]2Cc3ccccc3[C@]13CCCC[C@@H]23` (relative stereo) [Example 16, (+/-)-(4aα,10α,10aα) 1,3,4,9,10,10a-Hexahydro-12-methyl-2H 4a,10-(iminomethano)phenanthrene]: the 50% inhibitory concentration (IC50) is 137 nM.

For `c1ccc(C2(N3CCCCC3)CCCCC2)cc1` [PCP, phencyclidine], the half-inhibitory concentration (IC50) came to 40 nM.

On to `c1ccc2c(c1)C[C@H]1CN(CC3CC3)[C@@]23CCCC[C@@H]13` (relative stereo) [Example 20, (+/-)-(4aα,10α,10aα)-12-(Cyclopropylmethyl)-1,3,4,9,10,10a-hexahydro-2H-4a,10-(iminomethano)-phenanthrene], for which the IC50 stood at 51 nM.

With `CCCN1C[C@@H]2Cc3ccccc3[C@]13CCCC[C@@H]23` (relative stereo) [Example 19, (+/-)-(4aα,10α,10aα)-1,3,4,9,10,10a-Hexahydro-12-propyl-2H-4a,10-(iminomethano)phenanthrene], the IC50 came to 54 nM.

Consider `c1ccc2c(c1)C[C@H]1CN[C@@]23CCCC[C@@H]13` (relative stereo) [Example 14, (+/-)-(4aα,10α,10aα) 1,3,4,9,10,10a Hexahydro-2H-4a,10-(iminomethano)phenanthrene], for which the IC50 came out at 86 nM.

With `c1csc(C2(N3CCCCC3)CCCCC2)c1` [TCP, 1[1-(2 thienyl)cyclohexyl]piperidine], the half-maximal inhibitory concentration (IC50) was determined as 9 nM.
